Measurements published in US9334289B2, “Cephem compound having catechol or pseudo-catechol structure” (SHIONOGI & CO., LTD., priority 2011, dated 2016).
Converted amounts (≈) assume the structure as drawn. Where two headings read alike, the source gives them in different places.

How the values were obtained:
Assay in all cases: MIC, CLSI broth microdilution, Test Example 1
Assay type in all cases: cell-based
E. coli ATCCBAA-199 = conditions: SHV-3 ESBL producing strain, cation-adjusted Mueller Hinton broth containing human apo-transferrin, 5×10^5 cfu/mL; for MIC: Escherichia coli, ATCCBAA199, read-out: Minimum Inhibitory Concentration (MIC) E. coli ATCC BAA-199
Method: (§1) Measurement of Minimum Inhibitory Concentration (MIC: μg/mL) was conducted according to CLSI (Clinical and Laboratory Standards Institute) method, and the amount of bacteria for inoculation was 5×10^5 cfu/mL, and cation-adjusted Mueller Hinton broth containing human apo-transferrin was used as a test medium, and the experiment was conducted using broth microdilution method. The bacteria used are listed below.

E. coli ATCCBAA-200 = conditions: SHV-4 ESBL producing strain, cation-adjusted Mueller Hinton broth containing human apo-transferrin, 5×10^5 cfu/mL; for MIC: Escherichia coli, ATCCBAA200, read-out: Minimum Inhibitory Concentration (MIC) E. coli ATCC BAA-200
Method: as §1

P. aeruginosa SR27060 = conditions: for MIC: Pseudomonas aeruginosa
Method: as §1

[1] = test system: K. pneumoniae ATCCBAA-1705; conditions: for MIC: Klebsiella pneumoniae
Method: as §1

A. baumannii SR27323 = conditions: for MIC: Acinetobacter baumannii
Method: as §1

P. aeruginosa SR24837 = conditions: for MIC: Pseudomonas aeruginosa
Method: as §1

P. aeruginosa SR24 = conditions: for MIC: Pseudomonas aeruginosa
[2] = SR27060, IMP-1 MBL producing strain (carbapenem resistance strain), cation-adjusted Mueller Hinton broth containing human apo-transferrin, 5×10^5 cfu/mL, read-out: Minimum Inhibitory Concentration (MIC) P. aeruginosa SR27060
[3] = ATCCBAA1705, KPC-2 carbapenemase producing strain, cation-adjusted Mueller Hinton broth containing human apo-transferrin, 5×10^5 cfu/mL, read-out: Minimum Inhibitory Concentration (MIC) K. pneumoniae ATCCBAA-1705
[4] = SR27323, OXA-23, OXA-58 carbapenemase producing strain, cation-adjusted Mueller Hinton broth containing human apo-transferrin, 5×10^5 cfu/mL, read-out: Minimum Inhibitory Concentration (MIC) A. baumannii SR27323
[5] = SR24837, PER-1 ESBL producing strain, cation-adjusted Mueller Hinton broth containing human apo-transferrin, 5×10^5 cfu/mL, read-out: Minimum Inhibitory Concentration (MIC) P. aeruginosa SR24837
[6] = SR24, Ceftazidime resistance strain, cation-adjusted Mueller Hinton broth containing human apo-transferrin, 5×10^5 cfu/mL, read-out: Minimum Inhibitory Concentration (MIC) P. aeruginosa SR24

Structure (SMILES)	MIC (E. coli ATCCBAA-199) [µg/mL]	MIC (E. coli ATCCBAA-200) [µg/mL]	MIC (P. aeruginosa SR27060; [2]) [µg/mL]	MIC [1, 3] [µg/mL]	MIC (A. baumannii SR27323; [4]) [µg/mL]	MIC (P. aeruginosa SR24837; [5]) [µg/mL]	MIC (P. aeruginosa SR24; [6]) [µg/mL]	MIC (P. aeruginosa SR27060; SR27060, read-out: Minimum Inhibitory Concentration (MIC) P. aeruginosa SR27060) [µg/mL]	MIC ([1]; ATCCBAA1705, read-out: Minimum Inhibitory Concentration (MIC) K. pneumoniae ATCCBAA-1705) [µg/mL]	MIC (A. baumannii SR27323; SR27323, read-out: Minimum Inhibitory Concentration (MIC) A. baumannii SR27323) [µg/mL]	MIC (P. aeruginosa SR24837; SR24837, read-out: Minimum Inhibitory Concentration (MIC) P. aeruginosa SR24837) [µg/mL]	MIC (P. aeruginosa SR24; SR24, read-out: Minimum Inhibitory Concentration (MIC) P. aeruginosa SR24) [µg/mL]	Minimum Inhibitory Concentration (MIC) E. coli ATCC BAA-199 (E. coli ATCCBAA-199) [µg/mL]	Minimum Inhibitory Concentration (MIC) E. coli ATCC BAA-200 (E. coli ATCCBAA-200) [µg/mL]	Minimum Inhibitory Concentration (MIC) P. aeruginosa SR27060 (P. aeruginosa SR27060; IMP-1 MBL producing strain (carbapenem resistance strain), cation-adjusted Mueller Hinton broth containing human apo-transferrin, 5×10^5 cfu/mL) [µg/mL]	Minimum Inhibitory Concentration (MIC) K. pneumoniae ATCCBAA-1705 ([1]; KPC-2 carbapenemase producing strain, cation-adjusted Mueller Hinton broth containing human apo-transferrin, 5×10^5 cfu/mL)	Minimum Inhibitory Concentration (MIC) A. baumannii SR27323 (A. baumannii SR27323; OXA-23, OXA-58 carbapenemase producing strain, cation-adjusted Mueller Hinton broth containing human apo-transferrin, 5×10^5 cfu/mL) [µg/mL]	Minimum Inhibitory Concentration (MIC) P. aeruginosa SR24837 (P. aeruginosa SR24837; PER-1 ESBL producing strain, cation-adjusted Mueller Hinton broth containing human apo-transferrin, 5×10^5 cfu/mL) [µg/mL]	Minimum Inhibitory Concentration (MIC) P. aeruginosa SR24 (P. aeruginosa SR24; Ceftazidime resistance strain, cation-adjusted Mueller Hinton broth containing human apo-transferrin, 5×10^5 cfu/mL) [µg/mL]
CC(C)(O/N=C(\C(=O)N[C@@H]1C(=O)N2C(c3nn[n-]n3)=C(C[N+]3(C)CCC(NC(=O)c4ccc(O)c(O)c4Cl)CC3)CS[C@H]12)c1csc(N)n1)C(=O)[O-].[Na+] (some centres unmarked) [Compound I-47]	0.5	1	1	0.063	0.25	0.5	0.125												
CC(C)(O/N=C(\C(=O)N[C@@H]1C(=O)N2C(c3nnn[n-]3)=C(C[n+]3ccc(CNC(=O)c4ccc(O)c(O)c4Cl)cc3)CS[C@H]12)c1csc(N)n1)C(=O)[O-].[Na+] [Compound I-71]	0.25	0.5						0.25	≤ 0.031	1	1	0.063							
C[N+]1(CC2=C(c3nnn[n-]3)N3C(=O)[C@@H](NC(=O)/C(=N\O[C@@H](CC(=O)[O-])C(=O)[O-])c4csc(N)n4)[C@H]3SC2)[C@@H]2CC[C@H]1C[C@@H](NC(=O)c1ccc(O)c(O)c1Cl)C2.[Na+].[Na+] (some centres unmarked) [Compound I-14]	0.25	1	1	≤ 0.031	0.125	8	0.5												
CC(C)(O/N=C(\C(=O)N[C@@H]1C(=O)N2C(C(=O)[O-])=C(C[N+]34CCC(CNC(=O)c5ccc(O)c(O)c5Cl)(CC3)CC4)CS[C@H]12)c1csc(N)n1)C(=O)[O-].[Na+] [Comparative Compound 1, reference compound]	2	4	4	0.125	1	> 32	0.5												
CC(C)(O/N=C(\C(=O)N[C@@H]1C(=O)N2C(c3nn[n-]n3)=C(C[n+]3ccc(NCc4ccc(O)c(O)c4Cl)cc3)CS[C@H]12)c1csc(N)n1)C(=O)[O-].[Na+] [Compound I-49]	0.25	0.5	1	≤ 0.031	1	0.25	0.063												
CC(C)(O/N=C(\C(=O)N[C@@H]1C(=O)N2C(c3nnn[n-]3)=C(C[N+]3(C)[C@@H]4CC[C@H]3C[C@@H](NC(=O)c3cc(O)c(O)c(F)c3)C4)CS[C@H]12)c1csc(N)n1)C(=O)[O-].[Na+] (some centres unmarked) [Compound I-6]	0.25	0.5	0.5	≤ 0.031	2	1	0.25												
CC(C)(O/N=C(\C(=O)N[C@@H]1C(=O)N2C(c3nnn[n-]3)=C(Cn3cc[n+](CCNC(=O)c4ccc(O)c(O)c4Cl)c3)CS[C@H]12)c1csc(N)n1)C(=O)[O-].[Na+] [Compound I-74]	0.063	0.125	0.25	≤ 0.031	0.5	0.5	0.125												
Nc1nc(C(=NOC(CC(=O)[O-])C(=O)[O-])C(=O)NC2C(=O)N3C(c4nnn[n-]4)=C(C[N+]4(CCNC(=O)c5ccc(O)c(O)c5Cl)CCCC4)CSC23)c(Cl)s1.[Na+].[Na+] (centres unmarked) [Compound I-91]													0.125	0.25	0.125	≦0.031 μg/ml	0.5	0.063	0.063
CC(C)(O/N=C(\C(=O)N[C@@H]1C(=O)N2C(c3nnn[nH]3)=C(C[n+]3ccc(NC(=O)c4ccc(O)c(O)c4Cl)c4ccccc43)CS[C@H]12)c1csc(N)n1)C(=O)[O-] [Compound I-78]	0.25 (≈ 0.31 µM)	0.5 (≈ 0.62 µM)	0.25 (≈ 0.31 µM)	≤ 0.031	0.25 (≈ 0.31 µM)	0.125 (≈ 0.155 µM)	0.125 (≈ 0.155 µM)												
CC(C)(O/N=C(\C(=O)N[C@@H]1C(=O)N2C(c3nnn[n-]3)=C(C[N+]34CCC[C@H]3CN(C(=O)c3cc(O)c(O)c(F)c3)CC4)CS[C@H]12)c1csc(N)n1)C(=O)[O-].[Na+] (some centres unmarked) [Compound I-5]	0.5	1	0.5	0.063	0.125	2	0.25												
CC(C)(O/N=C(\C(=O)N[C@@H]1C(=O)N2C(c3nnn[n-]3)=C(C[n+]3ccc(NC(=O)c4ccc(O)c(O)c4Cl)cc3)CS[C@H]12)c1csc(N)n1)C(=O)[O-].[Na+] [Compound I-15]	0.063	0.25	0.5	≤ 0.031	≤ 0.031	≤ 0.031	0.125												
CC(C)(O/N=C(\C(=O)N[C@@H]1C(=O)N2C(c3nnn[n-]3)=C(C[N+]34CCC(CNC(=O)c5ccc(O)c(O)c5Cl)(CC3)CC4)CS[C@H]12)c1csc(N)n1)C(=O)[O-].[Na+] [Compound I-10]	0.5	1	2	≤ 0.031	0.5	2	0.25												
CC(C)(O/N=C(\C(=O)N[C@@H]1C(=O)N2C(c3nnn[n-]3)=C(C[N+]3(CCNC(=O)c4ccc(O)c(O)c4Cl)CCCC3)CS[C@H]12)c1nc(N)sc1Cl)C(=O)[O-].[Na+] [Compound I-88]	0.063	0.125	0.5	0.063	0.5	≤ 0.031	0.063												
CC(C)(O/N=C(\C(=O)N[C@@H]1C(=O)N2C(c3nnn[nH]3)=C(C[n+]3cccc4c3CCCN4C(=O)c3ccc(O)c(O)c3Cl)CS[C@H]12)c1csc(N)n1)C(=O)[O-] [Compound I-75]	0.125 (≈ 0.157 µM)	0.5 (≈ 0.628 µM)	0.25 (≈ 0.314 µM)	0.063 (≈ 0.0791 µM)	1 (≈ 1.26 µM)	0.063 (≈ 0.0791 µM)	0.063 (≈ 0.0791 µM)												
